# From ChEMBL document CHEMBL1201862, “PubChem BioAssay data set” (2004)
#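 In this assay, cells in 96-well plates receive the compound at five concentrations for 48 hours. Endpoints are linearly interpolated between the surrounding concentrations. The concentration for 50% growth inhibition is given as GI50.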 The source made the active and inactive calls. Cut-off read from the data, not from the text of the source: active = GI50 up to about 1.1 µM and inactive = higher.
# How the values were obtained:
# Assay in all cases: NCI-60 cell line screen, 48 h
# [1] = test system: A549
# [2] = test system: CCRF-CEM
# [3] = test system: EKVX
# [4] = test system: HCT-15
# [5] = test system: HL-60
# [6] = test system: MOLT-4
# [7] = test system: Malme-3M
# [8] = test system: NCI-H226
# [9] = test system: NCI-H522
# [10] = test system: NCI/ADR-RES
# [11] = test system: OVCAR-8
# [12] = test system: SF-268
# [13] = test system: SF-539
# [14] = test system: SK-MEL-28
# [15] = test system: SK-OV-3
# [16] = test system: SNB-19
# [17] = test system: T47D
# [18] = test system: U-251
# [19] = test system: OVCAR-5
Compound,GI50 [1],GI50 [2],GI50 [3],GI50 [4] [µM],GI50 [5],GI50 [6],GI50 [7],GI50 [8],GI50 [9],GI50 [10],GI50 [11],GI50 [12],GI50 [13],GI50 [14],GI50 [15],GI50 [16],GI50 [17],GI50 [18],GI50 [19]
CCOC(=O)Cc1nc2c(N)ncnc2n1C1OC(COC(C)=O)C(OC(C)=O)C1OC(C)=O (configuration not stated),> 100 µM (inactive),> 100 µM (inactive),> 100 µM (inactive),> 100,> 100 µM (inactive),> 100 µM (inactive),> 100 µM (inactive),> 100 µM (inactive),> 100 µM (inactive),> 100 µM (inactive),> 100 µM (inactive),> 100 µM (inactive),> 100 µM (inactive),> 100 µM (inactive),> 100 µM (inactive),> 100 µM (inactive),> 100 µM (inactive),> 100 µM (inactive),–
CCOC(=O)CCC(C(=O)OCC)n1nc2ccc(Nc3c(C)[n+]([O-])c4cc(Cl)ccc4[n+]3[O-])cc2n1 (configuration not stated),> 100 µM (inactive),49.3 µM (inactive),32.2 µM (inactive),88.1,96.8 µM (inactive),32.3 µM (inactive),> 100 µM (inactive),62.4 µM (inactive),40 µM (inactive),> 100 µM (inactive),> 100 µM (inactive),39.1 µM (inactive),> 100 µM (inactive),–,> 100 µM (inactive),> 100 µM (inactive),32.9 µM (inactive),> 100 µM (inactive),> 100 µM (inactive)
O=c1[nH]nc(Cc2ccc(Cl)cc2)n1CCO,> 100 µM (inactive),–,> 100 µM (inactive),> 100,> 100 µM (inactive),> 100 µM (inactive),> 100 µM (inactive),> 100 µM (inactive),> 100 µM (inactive),> 100 µM (inactive),> 100 µM (inactive),> 100 µM (inactive),> 100 µM (inactive),> 100 µM (inactive),> 100 µM (inactive),> 100 µM (inactive),> 100 µM (inactive),> 100 µM (inactive),> 100 µM (inactive)
Nc1ccc(Cc2ccc(/N=C\c3ccc(OCc4cccc(COc5ccc(/C=N\c6ccc(Cc7ccc(N)cc7)cc6)cc5)n4)cc3)cc2)cc1,> 100 µM (inactive),> 100 µM (inactive),94.6 µM (inactive),> 100,> 100 µM (inactive),> 100 µM (inactive),63.1 µM (inactive),> 100 µM (inactive),> 100 µM (inactive),> 100 µM (inactive),62.8 µM (inactive),45.2 µM (inactive),4.29 µM (inactive),> 100 µM (inactive),–,41.7 µM (inactive),68.9 µM (inactive),41 µM (inactive),> 100 µM (inactive)
COC(=O)c1cc2c(cc1C(=O)OC)[C@@]1(C)CCCC(C)(C)C1CC2 (some centres not stated),19.4 µM (inactive),16.7 µM (inactive),13.3 µM (inactive),17.1,8.77 µM (inactive),15.1 µM (inactive),1.22 µM (inactive),17.4 µM (inactive),16.9 µM (inactive),16.3 µM (inactive),30.9 µM (inactive),13.9 µM (inactive),22 µM (inactive),26.3 µM (inactive),–,23.7 µM (inactive),0.508 µM (active),18.4 µM (inactive),18.3 µM (inactive)
CCOC(=O)C1CCCN1C(=O)c1ccccc1Cl (configuration not stated),> 100 µM (inactive),> 100 µM (inactive),> 100 µM (inactive),> 100,> 100 µM (inactive),> 100 µM (inactive),> 100 µM (inactive),> 100 µM (inactive),> 100 µM (inactive),> 100 µM (inactive),> 100 µM (inactive),> 100 µM (inactive),> 100 µM (inactive),> 100 µM (inactive),–,> 100 µM (inactive),> 100 µM (inactive),> 100 µM (inactive),> 100 µM (inactive)
COc1cc(/C=C/C2=NN(c3cccc(S(=O)(=O)O)c3)C3(C2)C(Cl)C(=O)N3c2nc3ccccc3s2)ccc1O (configuration not stated),31 µM (inactive),17.7 µM (inactive),20.3 µM (inactive),16.7,21.4 µM (inactive),19.2 µM (inactive),19.7 µM (inactive),20.7 µM (inactive),13.9 µM (inactive),27.4 µM (inactive),18.3 µM (inactive),23.8 µM (inactive),21.4 µM (inactive),25.1 µM (inactive),–,65.9 µM (inactive),6.47 µM (inactive),18 µM (inactive),20.2 µM (inactive)
COC(=O)c1scc(N)c1-n1ccc(=O)[nH]c1=O,> 100 µM (inactive),> 100 µM (inactive),> 100 µM (inactive),> 100,> 100 µM (inactive),> 100 µM (inactive),> 100 µM (inactive),> 100 µM (inactive),> 100 µM (inactive),> 100 µM (inactive),> 100 µM (inactive),> 100 µM (inactive),> 100 µM (inactive),> 100 µM (inactive),–,> 100 µM (inactive),> 100 µM (inactive),> 100 µM (inactive),> 100 µM (inactive)
O=c1[nH]c(=O)c2c([nH]1)[nH]c1ccccc12,> 100 µM (inactive),> 100 µM (inactive),> 100 µM (inactive),> 100,> 10 µM (inactive),> 100 µM (inactive),> 100 µM (inactive),> 100 µM (inactive),> 100 µM (inactive),> 100 µM (inactive),> 100 µM (inactive),> 100 µM (inactive),> 100 µM (inactive),–,> 100 µM (inactive),> 100 µM (inactive),> 100 µM (inactive),–,> 100 µM (inactive)
Cc1ccc2[nH]c3c(c(=O)n(C)c(=O)n3C)c2c1,> 100 µM (inactive),> 100 µM (inactive),> 100 µM (inactive),> 100,> 100 µM (inactive),> 100 µM (inactive),> 100 µM (inactive),> 100 µM (inactive),> 100 µM (inactive),> 100 µM (inactive),> 100 µM (inactive),> 100 µM (inactive),> 100 µM (inactive),–,> 100 µM (inactive),> 100 µM (inactive),> 100 µM (inactive),> 100 µM (inactive),> 100 µM (inactive)
c1ccc(-c2cs[s+]c2)cc1,> 100 µM (inactive),22.9 µM (inactive),> 100 µM (inactive),40.8,41.9 µM (inactive),26.5 µM (inactive),> 100 µM (inactive),> 100 µM (inactive),46.2 µM (inactive),> 100 µM (inactive),> 100 µM (inactive),> 100 µM (inactive),–,> 100 µM (inactive),> 100 µM (inactive),> 100 µM (inactive),> 100 µM (inactive),> 100 µM (inactive),> 100 µM (inactive)
